Test systems include CCRF-CEM leukemia; K-562 leukemia; A549 NSCLC; NCI-H226 lung; SNB-19 CNS; RPMI-8226 leukemia; HT29 colon; SK-MEL-5 melanoma; SNB-75 CNS; NCI-H460 lung.
What all share (assay): NCI-60 cell line screen, 48 h

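These data come from cells grown in 96-well plates and exposed to compound for 48 hours at five concentrations. GI50 marks 50% less growth. TGI marks complete inhibition of growth.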

Regarding `COc1cc2ccc1-c1cc(ccc1O)CC1c3cc4c(cc3CCN1C)Oc1c(OC)cc3c(c1O4)C(C2)N(C)CC3` (configuration not stated), the TGI was 5.18 µM in the assay with CCRF-CEM leukemia; 3.27 µM with K-562 leukemia; 3.41 µM with A549 NSCLC; 4.08 µM in the assay on NCI-H226 lung; 4.28 µM in the assay on SNB-19 CNS; 4.75 µM in the assay with RPMI-8226 leukemia. Moreover, the TGI in the assay with HT29 colon came out at 3.27 µM; in the assay on SK-MEL-5 melanoma, 3.52 µM; in the assay on SNB-75 CNS, 3.52 µM; in the assay with NCI-H460 lung, 3.23 µM.

Take `Oc1cc(O)cc(/C=C/c2ccc(O)c(O)c2)c1`: the TGI in the assay on CCRF-CEM leukemia is 24.3 µM; with K-562 leukemia it was above 58.9 µM; with A549 NSCLC it was 53.4 µM; with NCI-H226 lung, 42.1 µM; in the assay on SNB-19 CNS it was above 88.4 µM; in the assay with RPMI-8226 leukemia it was above 93.8 µM. In addition, the TGI in the assay on HT29 colon was 57 µM; in the assay with SK-MEL-5 melanoma it was above 49.1 µM; with SNB-75 CNS it was 51.7 µM; in the assay on NCI-H460 lung it was 60.5 µM.

Regarding `CN(C)c1ccc(C2CC(=O)C(C#N)=C(c3ccccc3)NN2C)cc1` (configuration not stated), the TGI in the assay on A549 NSCLC was above 100 µM; with NCI-H226 lung, above 100 µM; in the assay on SNB-19 CNS it was above 100 µM; in the assay with RPMI-8226 leukemia it was above 100 µM; with HT29 colon it was 24.5 µM; in the assay with SK-MEL-5 melanoma, 11.9 µM. Also, the results for the TGI in the assay with SNB-75 CNS and in the assay on NCI-H460 lung were 7.59 µM and 36.9 µM, respectively.

On to `CN(C)c1ccc2nc3c(C(=O)O)cc(=O)c(O)c-3oc2c1`, for which the TGI in the assay on CCRF-CEM leukemia is 57.8 µM; in the assay with K-562 leukemia, 74.8 µM; in the assay on A549 NSCLC it was above 100 µM; in the assay with NCI-H226 lung, above 100 µM; in the assay on SNB-19 CNS, 89.8 µM; in the assay with RPMI-8226 leukemia it was 95.2 µM. Moreover, the TGI is above 100 µM with HT29 colon, 29.3 µM in the assay with SK-MEL-5 melanoma, 60 µM with SNB-75 CNS and 66 µM in the assay on NCI-H460 lung.

Take `C[n+]1cccc(/C=C/c2ccc3cccc(O)c3n2)c1`: the TGI in the assay with CCRF-CEM leukemia, in the assay with K-562 leukemia, in the assay with A549 NSCLC, in the assay on NCI-H226 lung, in the assay with SNB-19 CNS and with RPMI-8226 leukemia was above 100 µM each time. Moreover, the TGI in the assay on HT29 colon, in the assay with SK-MEL-5 melanoma, in the assay on SNB-75 CNS and in the assay on NCI-H460 lung was above 100 µM in each case.

In the case of `CC(C)CNc1nc(N)[nH]c(=O)c1NC=O`, the TGI in the assay with CCRF-CEM leukemia, in the assay on K-562 leukemia, in the assay with A549 NSCLC, in the assay on NCI-H226 lung, in the assay on SNB-19 CNS and in the assay on RPMI-8226 leukemia was above 100 µM each time. In addition, the TGI with HT29 colon, in the assay on SK-MEL-5 melanoma, in the assay with SNB-75 CNS and in the assay with NCI-H460 lung was above 100 µM each time.

Take `N=C(N)c1ccc(-c2ccc(-c3ccc(Cl)cn3)s2)cc1`: in the assay with NCI-H226 lung, the GI50 is 2.76 µM and the TGI was 12 µM. Besides, in the assay with SK-MEL-5 melanoma, the GI50 was 1.77 µM and the TGI was 3.19 µM.

For `CCN(CC)Cc1ccc2cccnc2c1O`, the TGI is 13.3 µM in the assay with CCRF-CEM leukemia; above 100 µM with K-562 leukemia; 32.9 µM with A549 NSCLC; above 100 µM in the assay with NCI-H226 lung; above 100 µM in the assay with SNB-19 CNS; 23.7 µM with RPMI-8226 leukemia. Also, the TGI in the assay on HT29 colon is 12.8 µM; in the assay on SK-MEL-5 melanoma it was above 100 µM; in the assay on SNB-75 CNS it was 12.7 µM; in the assay on NCI-H460 lung, 19.8 µM.

For the compound `Cc1cc(=O)[nH]c(NN2C(Cl)C(=O)C2c2cccc([N+](=O)[O-])c2)n1` (configuration not stated), the TGI was 10.3 µM in the assay with CCRF-CEM leukemia; 55.3 µM in the assay on K-562 leukemia; above 100 µM in the assay with A549 NSCLC; 46.9 µM with NCI-H226 lung; above 100 µM with SNB-19 CNS; 40.3 µM in the assay on RPMI-8226 leukemia. The TGI was 49.9 µM with HT29 colon, 33.5 µM in the assay with SK-MEL-5 melanoma, above 100 µM in the assay on SNB-75 CNS and above 100 µM in the assay on NCI-H460 lung.

As for `COc1cc2c(cc1OC)C(Cl)C(c1ccc(Cl)cc1)=C2Cl` (configuration not stated), the TGI in the assay with CCRF-CEM leukemia is 30.6 µM; in the assay with K-562 leukemia it was 32.9 µM; with NCI-H226 lung, 50.6 µM; with SNB-19 CNS it was above 100 µM; with RPMI-8226 leukemia, 45.6 µM; in the assay with HT29 colon, 28.6 µM. Also, the TGI was found to be 28.3 µM in the assay with SK-MEL-5 melanoma, 36.2 µM in the assay on SNB-75 CNS and 29.8 µM with NCI-H460 lung.

`C[C@H]1CCC/C=C/[C@@H]2C[C@H](O)C[C@H]2[C@H](O)[C@@H](S(=O)CCN)CC(=O)O1` (some centres not stated): the GI50 is 0.0729 µM with CCRF-CEM leukemia; 0.132 µM with K-562 leukemia; 0.0402 µM in the assay on A549 NSCLC; 0.041 µM in the assay on NCI-H226 lung; 0.21 µM with SNB-19 CNS; 0.294 µM in the assay with RPMI-8226 leukemia. Further, the GI50 with HT29 colon was below 0.0158 µM; with SK-MEL-5 melanoma, 0.015 µM; with SNB-75 CNS, below 0.0231 µM; in the assay with NCI-H460 lung, 0.0119 µM. The TGI is above 100 µM with K-562 leukemia; above 100 µM in the assay on A549 NSCLC; 0.199 µM with NCI-H226 lung; above 100 µM in the assay on SNB-19 CNS; 2.71 µM with RPMI-8226 leukemia; 0.0378 µM in the assay with HT29 colon. Further, the TGI in the assay with SK-MEL-5 melanoma is 0.0295 µM; in the assay on SNB-75 CNS, above 25.1 µM; in the assay on NCI-H460 lung, 0.0743 µM.

Regarding `c1ccc2c[n+](CCCCCCCCCC[n+]3ccc4ccccc4c3)ccc2c1`, the TGI in the assay with CCRF-CEM leukemia, with K-562 leukemia, with A549 NSCLC, in the assay on NCI-H226 lung, in the assay on SNB-19 CNS and with RPMI-8226 leukemia was above 10 µM in each case. In addition, the TGI in the assay on HT29 colon, in the assay with SK-MEL-5 melanoma, in the assay on SNB-75 CNS and in the assay with NCI-H460 lung was above 10 µM throughout.

On to `CC[C@H](Nc1nc(N)nc(N)c1Cl)c1nc2cccc(NCc3ccc(C(=O)NO)cc3)c2c(=O)n1-c1ccccc1`, for which the GI50 with CCRF-CEM leukemia is 1.35 µM; in the assay on K-562 leukemia, 1.78 µM; with A549 NSCLC, 2.33 µM; in the assay on SNB-19 CNS it was 1.7 µM; with RPMI-8226 leukemia it was 2.15 µM; with HT29 colon, 2.01 µM. The GI50 in the assay with SK-MEL-5 melanoma was 1.75 µM; in the assay with NCI-H460 lung, 1.94 µM. The TGI is above 100 µM in the assay with CCRF-CEM leukemia; above 100 µM with K-562 leukemia; 5.73 µM in the assay on A549 NSCLC; 4.18 µM in the assay with SNB-19 CNS; 5.92 µM in the assay with RPMI-8226 leukemia; 5.27 µM in the assay on HT29 colon. The TGI in the assay with SK-MEL-5 melanoma amounted to 3.22 µM; with NCI-H460 lung it was 4.43 µM.

For `O=C(O)c1ccccn1`, the TGI in the assay with CCRF-CEM leukemia, in the assay on K-562 leukemia, in the assay on A549 NSCLC, in the assay on NCI-H226 lung, in the assay with SNB-19 CNS and with RPMI-8226 leukemia was above 100 µM throughout. Besides, the TGI with HT29 colon, with SK-MEL-5 melanoma, in the assay with SNB-75 CNS and in the assay on NCI-H460 lung was above 100 µM each time.

Regarding `COc1cnc2c(c1)C(=O)c1c-2n(CCCN2CCNCC2)c(=O)c2cc(Cl)ccc12`, the GI50 was 1.04 µM in the assay on NCI-H226 lung, 0.66 µM in the assay with HT29 colon, 0.291 µM in the assay on SNB-75 CNS and 0.0449 µM in the assay with NCI-H460 lung. The TGI was 4.91 µM with NCI-H226 lung, 2.21 µM in the assay with HT29 colon, 1.69 µM in the assay on SNB-75 CNS and 1.29 µM in the assay on NCI-H460 lung.

For the compound `O=C1c2ccccc2C(=O)c2c(NCCNC(=O)C3CCCN3)ccc(NCCNC(=O)C3CCCN3)c21` (configuration not stated), the TGI in the assay on CCRF-CEM leukemia was above 100 µM; in the assay with K-562 leukemia it was 52.2 µM; in the assay on A549 NSCLC, above 100 µM; in the assay with NCI-H226 lung, above 100 µM; in the assay with SNB-19 CNS, above 100 µM; with RPMI-8226 leukemia it was 58.8 µM. Further, the TGI in the assay with HT29 colon, in the assay on SK-MEL-5 melanoma and in the assay on SNB-75 CNS was above 100 µM throughout.

As for `CN(C)CCNC(=O)c1cccc2nc3c4ccccc4c4ccccc4c3nc12`, the TGI with CCRF-CEM leukemia stood at 3.03 µM; in the assay on K-562 leukemia, 3.57 µM; with A549 NSCLC, 12.2 µM; with NCI-H226 lung, 28.1 µM; in the assay on SNB-19 CNS it was 8.6 µM; in the assay on RPMI-8226 leukemia, 5.3 µM. Also, the TGI turned out to be 3.01 µM with HT29 colon, 15.7 µM in the assay on SK-MEL-5 melanoma, 8.85 µM in the assay on SNB-75 CNS and 2.35 µM in the assay with NCI-H460 lung.

Turning to `CN(C)[C@@H]1C(=O)C(C(=O)NCNCCCC(=O)O)=C(O)[C@@]2(O)C(=O)C3=C(O)c4c(O)cccc4[C@@](C)(O)[C@H]3C[C@@H]12`, the TGI in the assay on CCRF-CEM leukemia, with K-562 leukemia, with A549 NSCLC, with NCI-H226 lung, with SNB-19 CNS and in the assay on RPMI-8226 leukemia was above 100 µM in each case. Further, the TGI in the assay with HT29 colon, with SK-MEL-5 melanoma and in the assay with NCI-H460 lung was above 100 µM throughout.

The values are drawn from PubChem BioAssay (NCI).
